# From patent publication US20060069132A1, “Azolecarboxamide herbicides” (priority 2004, published 2006)
# Legend:
# [1] = test system: downy bromegrass; experiment: Test C postemergence herbicide test; type: in vivo, Bromus tectorum
# Method: (§1) At the same time, plants selected from these crop and weed species and also winter barley (Hordeum vulgare L.), blackgrass (Alopecurus myosuroides Huds.), canarygrass (Phalaris minor Retz.), chickweed (Stellaria media (L.) Vill.), downy bromegrass (Bromus tectorum L.), green foxtail (Setaria viridis (L.) Beauv.), Italian ryegrass (Lolium multiflorum Lam.), wheat (Triticum aestivum L.), wild oat (Avenafatua L.) and windgrass (Apera spica-venti (L.) Beauv.) were treated with postemergence applications of some of the test chemicals formulated in the same manner. Plants ranged in height from 2 to 18 cm (1- to 4-leaf stage) for postemergence treatments. Plant species in the flooded paddy test consisted of rice (Oryza sativa), smallflower umbrella sedge (Cyperus difformis L.), ducksalad (Heteranthera limosa (Sw.) Willd.) and barnyardgrass (Echinochloa crus-galli (L.) Beauv.) grown to the 2-leaf stage for testing. Treated plants and controls were maintained in a greenhouse for 12 to 14 days, after which time all species were compared to controls and visually evaluated. Plant response ratings, summarized in Table C, are based on a scale of 0 to 100 where 0 is no effect and 100 is complete control. A dash (-) response means no test result.
# [2] = test system: green foxtail; experiment: Test C postemergence herbicide test; type: in vivo, Setaria viridis
# Method: as §1
# [3] = test system: Italian ryegrass; experiment: Test C postemergence herbicide test; type: in vivo, Lolium multiflorum
# Method: as §1
# [4] = test system: green foxtail; experiment: Test E pre-/postemergence herbicide test; type: in vivo, Setaria viridis
# Summary of the method: (§2)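 Visual 0–100 rating vs untreated controls (0 = no effect, 100 = complete control), 12–14 d after treatment in greenhouse. Pre- and postemergence (2–18 cm, 1- to 4-leaf) applications; compounds in non-phytotoxic solvent with surfactant.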
# [5] = test system: pitted morningglory; experiment: Test E pre-/postemergence herbicide test; type: in vivo, Ipomoea lacunosa
# Summary of the method: as §2
# [6] = test system: purple nutsedge; experiment: Test E pre-/postemergence herbicide test; type: in vivo, Cyperus rotundus
# Summary of the method: as §2
# [7] = test system: mustard; experiment: Test E pre-/postemergence herbicide test; type: in vivo, Brassica nigra
# Summary of the method: as §2
# [8] = test system: dallisgrass; experiment: Test E pre-/postemergence herbicide test; type: in vivo, Paspalum dilatatum
# Summary of the method: as §2
# [9] = test system: southern sandbur; experiment: Test E pre-/postemergence herbicide test; type: in vivo, Cenchrus echinatus
# Summary of the method: as §2
# [10] = test system: common sowthistle; experiment: Test E pre-/postemergence herbicide test; type: in vivo, Sonchus oleraceous
# Summary of the method: as §2
# [11] = test system: prickly sida; experiment: Test E pre-/postemergence herbicide test; type: in vivo, Sida spinosa
# Summary of the method: as §2
# [12] = test system: itchgrass; experiment: Test E pre-/postemergence herbicide test; type: in vivo, Rottboellia cochinchinensis
# Summary of the method: as §2
# [13] = test system: field bindweed; experiment: Test E pre-/postemergence herbicide test; type: in vivo, Convolvulus arvensis
# Summary of the method: as §2
# [14] = Postemergence, 250 g ai/ha, scale 0 to 100, 0 no effect, 100 complete control
# [15] = Postemergence, 500 g ai/ha, scale 0 to 100, 0 no effect, 100 complete control
# [16] = postemergence, 125 g ai/ha, scale 0 to 100
# [17] = postemergence, 62 g ai/ha, scale 0 to 100
# [18] = Preemergence, 125 g ai/ha, scale 0 to 100
# [19] = Preemergence, 250 g ai/ha, scale 0 (no effect) to 100 (complete control)
# [20] = Preemergence, 375 g ai/ha, scale 0 (no effect) to 100 (complete control)
# [21] = Preemergence, 500 g ai/ha, scale 0 (no effect) to 100 (complete control)
# [22] = Postemergence, 500 g ai/ha, scale 0 to 100
# [23] = Postemergence, 250 g ai/ha, scale 0 to 100
# [24] = Preemergence, 62 g ai/ha, scale 0 to 100
smiles,measurement,setting,value
C=CCNC(=O)c1cccc(NC(=O)c2nn(C(C)(C)C)nc2CC)c1 [Compound 414],"Plant response rating, Bromegrass, Downy",[1]; [14],55
same,"Plant response rating, Bromegrass, Downy",[1]; [15],60
same,"Plant response rating, Bromegrass, Downy",[1]; [16],45
same,"Plant response rating, Bromegrass, Downy",[1]; [17],40
same,"Plant response rating, Foxtail, Green",[2]; [14],65
same,"Plant response rating, Foxtail, Green",[2]; [15],65
same,"Plant response rating, Foxtail, Green",[2]; [16],60
same,"Plant response rating, Foxtail, Green",[2]; [17],60
same,"Plant response rating, Ryegrass, Italian",[3]; [15],60
same,"Plant response rating, Ryegrass, Italian",[3]; [16],55
same,"Plant response rating, Ryegrass, Italian",[3]; [17],50
CCn1nc(C(C)(C)C)cc1C(=O)Nc1cc(C(=S)N(C)C)ccn1 [Compound 334],"Plant response rating, Bromegrass, Downy",[1]; [14],45
same,"Plant response rating, Bromegrass, Downy",[1]; [16],35
same,"Plant response rating, Bromegrass, Downy","[1]; postemergence, 31 g ai/ha, scale 0 to 100",20
same,"Plant response rating, Bromegrass, Downy",[1]; [17],30
same,"Plant response rating, Foxtail, Green",[2]; [14],45
same,"Plant response rating, Foxtail, Green",[2]; [16],35
same,"Plant response rating, Foxtail, Green",[2]; [17],35
same,"Plant response rating, Ryegrass, Italian",[3]; [14],45
same,"Plant response rating, Ryegrass, Italian",[3]; [16],35
same,"Plant response rating, Ryegrass, Italian",[3]; [17],30
CCc1nn(C(C)(C)C)cc1C(=O)Nc1cc(C(=O)N(C)C)ccn1 [Compound 293],"Plant response rating, Foxtail, Green",[4]; [18],50
same,"Plant response rating, Foxtail, Green",[4]; [19],95
same,"Plant response rating, Foxtail, Green",[4]; [20],95
same,"Plant response rating, Foxtail, Green",[4]; [21],100
same,"Plant response rating, Morningglory",[5]; [18],10
same,"Plant response rating, Morningglory",[5]; [19],40
same,"Plant response rating, Morningglory",[5]; [20],50
same,"Plant response rating, Morningglory",[5]; [21],90
same,"Plant response rating, Nutsedge, Purple",[6]; [19],40
same,"Plant response rating, Nutsedge, Purple",[6]; [20],50
same,"Plant response rating, Nutsedge, Purple",[6]; [21],60
same,"Plant response rating, Black Mustard",[7]; [18],95
same,"Plant response rating, Black Mustard",[7]; [19],100
same,"Plant response rating, Black Mustard",[7]; [20],100
same,"Plant response rating, Black Mustard",[7]; [21],100
same,"Plant response rating, Dallisgrass",[8]; [18],60
same,"Plant response rating, Dallisgrass",[8]; [19],95
same,"Plant response rating, Dallisgrass",[8]; [20],95
same,"Plant response rating, Dallisgrass",[8]; [21],100
same,"Plant response rating, Sandbur",[9]; [18],10
same,"Plant response rating, Sandbur",[9]; [19],100
same,"Plant response rating, Sandbur",[9]; [20],100
same,"Plant response rating, Sandbur",[9]; [21],100
same,"Plant response rating, Sowthistle",[10]; [18],75
same,"Plant response rating, Sowthistle",[10]; [19],95
same,"Plant response rating, Sowthistle",[10]; [20],95
same,"Plant response rating, Sowthistle",[10]; [21],100
same,"Plant response rating, Prickly Sida",[11]; [19],80
same,"Plant response rating, Prickly Sida",[11]; [20],100
same,"Plant response rating, Prickly Sida",[11]; [21],100
same,"Plant response rating, Itchgrass",[12]; [18],10
same,"Plant response rating, Itchgrass",[12]; [19],90
same,"Plant response rating, Itchgrass",[12]; [20],100
same,"Plant response rating, Itchgrass",[12]; [21],100
same,"Plant response rating, Bindweed, Field",[13]; [18],40
same,"Plant response rating, Bindweed, Field",[13]; [19],60
same,"Plant response rating, Bindweed, Field",[13]; [20],95
same,"Plant response rating, Bindweed, Field",[13]; [21],95
CCn1nc(C2(C)CC2)cc1C(=O)Nc1cc(C(=O)N(C)C)ccc1F [Compound 299],"Plant response rating, Foxtail, Green",[4]; [22],100
same,"Plant response rating, Foxtail, Green",[4]; [23],85
same,"Plant response rating, Foxtail, Green",[4]; [24],50
same,"Plant response rating, Foxtail, Green",[4]; [18],100
same,"Plant response rating, Foxtail, Green",[4]; [19],100
same,"Plant response rating, Foxtail, Green",[4]; [21],100
same,"Plant response rating, Foxtail, Green",[4]; [16],70
same,"Plant response rating, Foxtail, Green",[4]; [17],30
same,"Plant response rating, Morningglory",[5]; [22],60
same,"Plant response rating, Morningglory",[5]; [23],40
same,"Plant response rating, Morningglory",[5]; [24],10
same,"Plant response rating, Morningglory",[5]; [18],75
same,"Plant response rating, Morningglory",[5]; [19],90
same,"Plant response rating, Morningglory",[5]; [16],20
same,"Plant response rating, Morningglory",[5]; [17],10
same,"Plant response rating, Nutsedge, Purple",[6]; [22],85
same,"Plant response rating, Nutsedge, Purple",[6]; [23],80
same,"Plant response rating, Nutsedge, Purple",[6]; [24],50
same,"Plant response rating, Nutsedge, Purple",[6]; [19],80
same,"Plant response rating, Nutsedge, Purple",[6]; [16],75
same,"Plant response rating, Nutsedge, Purple",[6]; [17],40
same,"Plant response rating, Black Mustard",[7]; [22],100
same,"Plant response rating, Black Mustard",[7]; [23],100
same,"Plant response rating, Black Mustard",[7]; [24],100
same,"Plant response rating, Black Mustard",[7]; [18],100
same,"Plant response rating, Black Mustard",[7]; [19],100
same,"Plant response rating, Black Mustard",[7]; [21],95
same,"Plant response rating, Black Mustard",[7]; [16],100
same,"Plant response rating, Black Mustard",[7]; [17],100
same,"Plant response rating, Dallisgrass",[8]; [22],85
same,"Plant response rating, Dallisgrass",[8]; [23],75
same,"Plant response rating, Dallisgrass",[8]; [24],75
same,"Plant response rating, Dallisgrass",[8]; [18],85
same,"Plant response rating, Dallisgrass",[8]; [19],100
same,"Plant response rating, Dallisgrass",[8]; [21],100
same,"Plant response rating, Dallisgrass",[8]; [16],70
same,"Plant response rating, Dallisgrass",[8]; [17],50
same,"Plant response rating, Sandbur",[9]; [22],80
same,"Plant response rating, Sandbur",[9]; [23],70
same,"Plant response rating, Sandbur",[9]; [24],10
same,"Plant response rating, Sandbur",[9]; [18],60
same,"Plant response rating, Sandbur",[9]; [19],100
same,"Plant response rating, Sandbur",[9]; [21],100
same,"Plant response rating, Sandbur",[9]; [16],40
same,"Plant response rating, Sandbur",[9]; [17],30
same,"Plant response rating, Sowthistle",[10]; [23],95
same,"Plant response rating, Sowthistle",[10]; [24],100
same,"Plant response rating, Sowthistle",[10]; [18],100
same,"Plant response rating, Sowthistle",[10]; [19],100
same,"Plant response rating, Sowthistle",[10]; [21],95
same,"Plant response rating, Sowthistle",[10]; [16],85
same,"Plant response rating, Sowthistle",[10]; [17],30
same,"Plant response rating, Prickly Sida",[11]; [22],95
same,"Plant response rating, Prickly Sida",[11]; [23],95
same,"Plant response rating, Prickly Sida",[11]; [24],85
same,"Plant response rating, Prickly Sida",[11]; [18],85
same,"Plant response rating, Prickly Sida",[11]; [19],100
same,"Plant response rating, Prickly Sida",[11]; [21],100
same,"Plant response rating, Prickly Sida",[11]; [16],95
same,"Plant response rating, Prickly Sida",[11]; [17],60
same,"Plant response rating, Itchgrass",[12]; [22],80
same,"Plant response rating, Itchgrass",[12]; [23],75
same,"Plant response rating, Itchgrass",[12]; [24],60
same,"Plant response rating, Itchgrass",[12]; [18],75
same,"Plant response rating, Itchgrass",[12]; [19],90
same,"Plant response rating, Itchgrass",[12]; [21],100
same,"Plant response rating, Itchgrass",[12]; [16],70
same,"Plant response rating, Itchgrass",[12]; [17],30
same,"Plant response rating, Bindweed, Field",[13]; [22],95
same,"Plant response rating, Bindweed, Field",[13]; [23],80
same,"Plant response rating, Bindweed, Field",[13]; [24],10
same,"Plant response rating, Bindweed, Field",[13]; [18],60
same,"Plant response rating, Bindweed, Field",[13]; [19],95
same,"Plant response rating, Bindweed, Field",[13]; [21],100
same,"Plant response rating, Bindweed, Field",[13]; [16],70
same,"Plant response rating, Bindweed, Field",[13]; [17],30
